According to patent US5674879A, “Compositions including and methods of using conformationally restricted angiotensin II antagonist” (G.D. Searle & Co., priority 1995, dated 1997):
Read-outs that look alike come from different tables or passages of the source.

How the values were obtained:
angiotensin II [1] = settings: binding experiments, functional assays and in vivo tests; cited from earlier work
[2] = target: smooth muscle angiotensin II receptor; experiment: Assay A: Angiotensin II Binding Activity (displacement of 125I-angiotensin II, rat uterine membrane preparation); settings: 50% displacement of specifically bound 125I-AII, rat uterine membranes, 25° C., 60 min, pH 7.5
Procedure: Assay A: Angiotensin II Binding Activity
Compounds of the invention were tested for ability to bind to the smooth muscle angiotensin II receptor using a rat uterine membrane preparation. Angiotensin II (AII) was purchased from Peninsula Labs. ^125 I-angiotensin II (specific activity of 2200 Ci/mmol) was purchased from Du Pont-New England Nuclear. Other chemicals were obtained from Sigma Chemical Co. This assay was carried out according to the method of Douglas et al [Endocrinology, 106, 120-124 (1980)]. Rat uterine membranes were prepared from fresh tissue. All procedures were carried out at 4° C. Uteri were stripped of fat and homogenized in phosphate-buffered saline at pH 7.4 containing 5 mM EDTA. The homogenate was centrifuged at 1500×g for 20 min., and the supernatant was recentrifuged at 100,000×g for 60 min. The pellet was resuspended in buffer consisting of 2 mM EDTA and 50 mM Tris-HCl (pH 7.5) to a final protein concentration of 4 mg/ml. Assay tubes were charged with 0.25 ml of a solution containing 5 mM MgCl2, 2 mM EDTA, 0.5% bovine serum albumin, 50 mM Tris-HCl, pH 7.5 and ^125 I-AII (approximately 10^5 cpm) in the absence or in the presence of unlabelled ligand. The reaction was initiated by the addition of membrane protein and the mixture was incubated at 25° C. for 60 min. The incubation was terminated with ice-cold 50 mM Tris-HCl (pH 7.5) and the mixture was filtered to separate membrane-bound labeled peptide from the free ligand. The incubation tube and filter were washed with ice-cold buffer. Filters were assayed for radioactivity in a Micromedic gamma counter. Nonspecific binding was defined as binding in the presence of 10 μM of unlabelled AII. Specific binding was calculated as total binding minus nonspecific binding. The receptor binding affinity of an AII antagonist compound was indicated by the concentration (IC50) of the tested AII antagonist which gives 50% displacement of the total specifically bound ^125 I-AII from the high affinity AII receptor. Binding data were analyzed by a nonlinear least-squares curve fitting program.

[3] = target: T1, rabbit aortic rings (angiotensin II contraction) (Oryctolagus cuniculus, UniProt P34976); experiment: Assay B: In Vitro Vascular Smooth Muscle Response for AII (rabbit aortic rings); type: cell-based, rabbit (male New Zealand white); settings: rabbit aorta rings, antagonist 10^-5 M for 5 min, 37° C., read-out: Assay B pA2 (converted)
T1 construct: The thoracic aorta was removed, cleaned of adherent fat and connective tissue and then cut into 3-mm ring segments; from tissue; host or cells: rabbit thoracic aorta rings, endothelium removed
T1 sequence (P34976 1-359): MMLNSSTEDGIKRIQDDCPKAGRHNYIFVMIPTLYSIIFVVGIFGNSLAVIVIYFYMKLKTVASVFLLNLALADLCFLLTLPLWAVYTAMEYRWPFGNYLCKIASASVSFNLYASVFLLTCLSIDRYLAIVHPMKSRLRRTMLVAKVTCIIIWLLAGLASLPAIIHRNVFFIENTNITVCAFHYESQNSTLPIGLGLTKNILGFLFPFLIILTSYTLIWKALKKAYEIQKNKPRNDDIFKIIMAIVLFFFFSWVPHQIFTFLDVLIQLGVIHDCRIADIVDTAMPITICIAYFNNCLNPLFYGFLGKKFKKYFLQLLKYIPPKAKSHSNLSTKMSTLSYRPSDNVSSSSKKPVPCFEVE
Procedure: Assay B: In Vitro Vascular Smooth Muscle-Response for AII
The compounds of the invention were tested for antagonist activity in rabbit aortic rings. Male New Zealand white rabbits (2-2.5 kg) were sacrificed using an overdose of pentobarbital and exsanguinated via the carotid arteries. The thoracic aorta was removed, cleaned of adherent fat and connective tissue and then cut into 3-mm ring segments. The endothelium was removed from the rings by gently sliding a rolled-up piece of filter paper into the vessel lumen. The rings were then mounted in a water-jacketed tissue bath, maintained at 37° C., between moveable and fixed ends of a stainless steel wire with the moveable end attached to an FT03 Grass transducer coupled to a Model 7D Grass Polygraph for recording isometric force responses. The bath was filled with 20 ml of oxygenated (95% oxygen/5% carbon dioxide) Krebs solution of the following composition (mM): 130 NaCl, 15 NaHCO3, […], 1.2 NaH2 PO4, 1.2 MgSO4, 2.5 CaCl2, and 11.4 glucose. The preparations were equilibrated for one hour before approximately one gram of passive tension was placed on the rings. Angiotensin II concentration-response curves were then recorded (3×10^-10 to 1×10^-5 M). Each concentration of AII was allowed to elicit its maximal contraction, and then AII was washed out repeatedly for 30 minutes before rechallenging with a higher concentration of AII. Aorta rings were exposed to the test antagonist at 10^-5 M for 5 minutes before challenging with AII. Adjacent segments of the same aorta ring were used for all concentration-response curves in the presence or absence of the test antagonist. The effectiveness of the test compound was expressed in terms of pA2 values and were calculated according to H. O. Schild [Br. J. Pharmacol. Chemother., 2, 189-206 (1947)]. The pA2 value is the concentration of the antagonist which increases the IC50 value for AII by a factor of two. Each test antagonist was evaluated in aorta rings from two rabbits.

angiotensin II [4] = settings: cited from earlier work
[5] = first of two values in the cell (rings from two rabbits)
[6] = second of two values in the cell (rings from two rabbits)

Compound	specific competitive angiotensin II antagonist activity (angiotensin II [1])	IC50 [2] [nM]	Kb [3, 5] [nM]	Kb [3, 6] [nM]	residual agonist activity (angiotensin II [4])
CCCCc1nc(Cl)c(CC(=O)O)n1Cc1ccccc1[N+](=O)[O-] [2-butyl-4-chloro-1-(2-nitrobenzyl)imidazole-5-acetic acid]	specific competitive angiotensin II antagonist activity				
CCCCc1nc(Cl)c(CC(=O)O)n1Cc1ccccc1Cl [2-n-butyl-4-chloro-1-(2-chlorobenzyl)imidazole-5-acetic acid]	specific competitive angiotensin II antagonist activity				
CCCCc1ncc2n1C(c1ccc(-c3ccccc3-c3nnn[nH]3)cc1)CC=C2CC(=O)OC(C)(C)C (stereo not drawn) [Example 17, 1,1-Dimethylethyl 3-butyl-5,6-dihydro-5-[2'-(1H-tetrazol-5-yl)[1,1'-biphenyl]-4-yl]imidazo[1,5-a]pyridin-8-acetate]		41	16.2	53.7	
CCCCc1nc(CCCC)n2c1C(=NO)CCC2c1ccc(-c2ccccc2-c2nn[nH]n2)cc1 (stereo not drawn) [Example 21, 1,3-Dibutyl-5,6-dihydro-N-hydroxy-5-[2'-(1H-tetrazol-5-yl)[1.1'-biphenyl]-4-yl]imidazol[1,5-a]pyridin-8(7H)-imine]		66	105	741	
CNCC(=O)N[C@@H](CCCN=C(N)N)C(=O)N[C@H](C(=O)N[C@@H](Cc1ccc(O)cc1)C(=O)N[C@H](C(=O)N[C@@H](Cc1cnc[nH]1)C(=O)N1CCC[C@H]1C(=O)N[C@@H](C)C(=O)O)C(C)C)C(C)C [Saralasin]					significant residual agonist activity
